Molecular target: b-Raf(V600E) (Homo sapiens (Human), UniProt P15056, V600E)
Assay: Raf/Mek Amplified Luminescence Proximity Homogeneous Assay (Alpha Screen)
Type: biochemical
Conditions: b-Raf(V600E) approximately 4 pM; biotinylated Mek, kinase dead approximately 10 nM; ATP 10 μM; pre-incubation 60 minutes; reaction 3 hours at room temperature; read-out: mut-B-RAF IC50
Procedure: Raf/Mek Amplified Luminescence Proximity Homogeneous Assay
Assay buffer: 50 mM Tris, pH 7.5, 15 mM MgCl2, 0.01% Bovine Serum Albumin (BSA), 1 mM dithiothreitol (DTT) Stop buffer: 60 mM ethylenediaminetetraacetic acid (EDTA), 0.01% Tween® 20 Bead buffer: 50 mM Tris, pH 7.5, 0.01% Tween® 20 […]
biotinylated Mek, kinase dead
Alpha Screen detection kit (available from PerkinElmer™, #6760617R)
Anti phospho-MEK1/2 (available from Cell Signaling Technology, Inc. #9121) 384 well assay plates (White Greiner® plates, #781207) […]
biotinylated Mek, Kinase dead approximately 10 nM
Pre-incubation time with compounds 60 minutes at room temperature
Reaction time 1 or 3 hours at room temperature
Raf and biotinylated Mek, kinase dead, were combined at 2× final concentrations in assay buffer (50 mM Tris, pH 7.5, 15 mM MgCl2, 0.01% BSA and 1 mM DTT) and dispensed 10 μl per well in assay plates (Greiner white 384 well assay plates #781207) containing 0.5 μl of 40× of a raf kinase inhibitor test compound diluted in 100% DMSO. The plate was incubated for 60 minutes at room temperature.
The Raf kinase activity reaction was started by the addition of 10 μL per well of 2×ATP diluted in assay buffer. […] Phosphorylated product was measured using a rabbit anti-p-MEK (Cell Signaling, #9121) antibody and the Alpha Screen IgG (ProteinA) detection Kit (PerkinElmer #6760617R), by the addition of 30 μL to the well of a mixture of the antibody (1:2000 dilution) and detection beads (1:2000 dilution of both beads) in bead buffer (50 mM Tris, pH 7.5, 0.01% Tween20). The additions were carried out under dark conditions to protect the detection beads from light. A lid was placed on top of the plate and incubated for 1 hour at room temperature, then the luminescence was read on a PerkinElmer Envision instrument. The concentration of each compound for 50% inhibition (IC50) was calculated by non-linear regression using XL Fit data analysis software.

Chain of b-Raf(V600E) (P15056 whole entry V600E): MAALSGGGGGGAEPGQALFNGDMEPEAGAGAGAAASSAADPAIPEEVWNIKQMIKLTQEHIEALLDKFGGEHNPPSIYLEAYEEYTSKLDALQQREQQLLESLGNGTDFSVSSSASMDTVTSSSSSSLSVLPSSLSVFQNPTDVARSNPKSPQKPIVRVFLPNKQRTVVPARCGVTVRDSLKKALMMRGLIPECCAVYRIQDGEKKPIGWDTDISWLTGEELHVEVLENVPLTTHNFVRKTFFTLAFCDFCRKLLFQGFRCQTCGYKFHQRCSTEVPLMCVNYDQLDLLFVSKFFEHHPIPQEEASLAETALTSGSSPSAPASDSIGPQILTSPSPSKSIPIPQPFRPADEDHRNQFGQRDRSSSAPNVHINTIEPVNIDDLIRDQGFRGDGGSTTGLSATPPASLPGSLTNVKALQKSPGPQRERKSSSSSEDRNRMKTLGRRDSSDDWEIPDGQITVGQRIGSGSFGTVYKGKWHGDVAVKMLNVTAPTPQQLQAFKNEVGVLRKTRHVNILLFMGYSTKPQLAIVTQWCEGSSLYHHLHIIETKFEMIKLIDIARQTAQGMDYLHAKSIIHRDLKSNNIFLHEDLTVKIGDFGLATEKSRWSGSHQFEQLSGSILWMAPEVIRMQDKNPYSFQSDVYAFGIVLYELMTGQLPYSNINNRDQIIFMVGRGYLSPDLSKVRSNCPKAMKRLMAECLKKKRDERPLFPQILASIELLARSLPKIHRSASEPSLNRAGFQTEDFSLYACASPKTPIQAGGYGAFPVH

| Structure (SMILES) | IC50 [nM] |
| --- | --- |
| CCCS(=O)(=O)Nc1cc(Cl)cc(-c2nc(C(C)(C)C)[nH]c2-c2ccnc(N)n2)c1F [Example 1BH, N-(3-(5-(2-Aminopyrimidin-4-yl)-2-tert-butyl-1H-imidazol-4-yl)-5-chloro-2-fluorophenyl)propane-1-sulfonamide] | 0.08 |
| CCCS(=O)(=O)Nc1cc(F)cc(-c2nc(C3CC3)[nH]c2-c2ccnc(N)n2)c1Cl [Example 1BS, N-(3-(5-(2-Aminopyrimidin-4-yl)-2-cyclopropyl-1H-imidazol-4-yl)-2-chloro-5-fluorophenyl)propane-1-sulfonamide] | 0.2 |
| COC(=O)N[C@@H](C)CNc1nccc(-c2nc(C3CC3)[nH]c2-c2cc(Cl)cc(NS(=O)(=O)c3ccc(F)cc3)c2F)n1 [Example 1AW] | 1 |
| CCCS(=O)(=O)Nc1cc(F)cc(-c2nc(C(C)(C)C)[nH]c2-c2ccnc(NC[C@H](C)NC(=O)OC)n2)c1Cl [Example 1AH] | 1 |
| COC(=O)N[C@@H](C)CNc1nccc(-c2[nH]c(C3CC3)nc2-c2cc(Cl)cc(NS(=O)(=O)c3cc(F)cc(F)c3)c2F)n1 [Example 1BM, (S)-Methyl 1-(4-(4-(5-chloro-3-(3,5-difluorophenylsulfonamido)-2-fluorophenyl)-2-cyclopropyl-1H-imidazol-5-yl)pyrimidin-2-ylamino)propan-2-ylcarbamate] | 0.37 |
| CNc1nccc(-c2[nH]c(C3CC3)nc2-c2cc(F)cc(NS(=O)(=O)c3c(F)cccc3F)c2Cl)n1 [Example 1BV, N-(2-Chloro-3-(2-cyclopropyl-5-(2-(methylamino)pyrimidin-4-yl)-1H-imidazol-4-yl)-5-fluorophenyl)-2,6-difluorobenzenesulfonamide] | 1 |
| COC(=O)N[C@@H](C)CNc1nccc(-c2[nH]c(C3CC3)nc2-c2cc(Cl)cc(NS(C)(=O)=O)c2F)n1 [Example 1A, (S)-methyl 1-(4-(4-(5-chloro-2-fluoro-3-(methylsulfonamido)phenyl)-2-cyclopropyl-1H-imidazol-5-yl)pyrimidin-2-ylamino)propan-2-ylcarbamate] | 0.2 |
| COC(=O)N[C@@H](C)CNc1nccc(-c2nc(C3(C)CC3)[nH]c2-c2cc(Cl)cc(NS(C)(=O)=O)c2F)n1 [Example 1AL] | 1 |
| Cc1cc(NS(C)(=O)=O)c(F)c(-c2nc(C3(C)CC3)[nH]c2-c2ccnc(NCCC#N)n2)c1 [Example 1BA, N-(3-(5-(2-(2-Cyanoethylamino)pyrimidin-4-yl)-2-(1-methylcyclopropyl)-1H-imidazol-4-yl)-2-fluoro-5-methylphenyl)methanesulfonamide] | 0.37 |
| COC(=O)N[C@@H](C)CNc1nccc(-c2[nH]c(C3CC3)nc2-c2cc(F)cc(NS(=O)(=O)c3c(F)cccc3F)c2Cl)n1 [Example 1BI, (S)-Methyl 1-(4-(4-(2-chloro-3-(2,6-difluorophenylsulfonamido)-5-fluorophenyl)-2-cyclopropyl-1H-imidazol-5-yl)pyrimidin-2-ylamino)propan-2-ylcarbamate] | 0.1 |
| Cc1cc(NS(C)(=O)=O)c(Cl)c(-c2nc(C3(C)CC3)[nH]c2-c2ccnc(NCCC#N)n2)c1 [Example 1AZ, N-(2-Chloro-3-(5-(2-(2-cyanoethylamino)pyrimidin-4-yl)-2-(1-methylcyclopropyl)-1H-imidazol-4-yl)-5-methylphenyl)methanesulfonamide] | 0.29 |
| CC(C)(C)c1nc(-c2cc(Cl)cc(NS(C)(=O)=O)c2F)c(-c2ccnc(N)n2)[nH]1 [Example 1BD, N-(3-(5-(2-Aminopyrimidin-4-yl)-2-tert-butyl-1H-imidazol-4-yl)-5-chloro-2-fluorophenyl)methanesulfonamide] | 3 |

The remaining lines, values ahead:

| IC50 [nM] | Structure (SMILES) |
| --- | --- |
| 0.1 | COC(=O)N[C@@H](C)CNc1nccc(-c2[nH]c(C(C)(C)C)nc2-c2cc(Cl)cc(NS(=O)(=O)C3CC3)c2)n1 [Example 1F, (S)-methyl 1-(4-(2-tert-butyl-4-(3-chloro-5-(cyclopropanesulfonamido)phenyl)-1H-imidazol-5-yl)pyrimidin-2-ylamino)propan-2-ylcarbamate] |
| 8 | COC(=O)N[C@@H](C)CNc1nccc(-c2[nH]c(C3CC3)nc2-c2cccc(NS(C)(=O)=O)c2)n1 [Example 4K, (S)-Methyl 1-(4-(2-cyclopropyl-4-(3-(methylsulfonamido)phenyl)-1H-imidazol-5-yl)pyrimidin-2-ylamino)propan-2-ylcarbamate] |
| 2 | COC(=O)N[C@@H](C)CNc1nccc(-c2[nH]c(-c3ccc(C(F)(F)F)cc3)nc2-c2cc(F)cc(NS(C)(=O)=O)c2Cl)n1 [Example 1BZ, (S)-Methyl 1-(4-(4-(2-chloro-5-fluoro-3-(methylsulfonamido)phenyl)-2-(4-(trifluoromethyl)phenyl)-1H-imidazol-5-yl)pyrimidin-2-ylamino)propan-2-ylcarbamate] |
| 189 | COC(=O)N[C@@H](C)CNc1nccc(-c2[nH]c(C(C)(C)C)nc2-c2cc(NS(=O)(=O)C(C)C)c(C)c(OC)c2)n1 [Example 1K, (S)-Methyl 1-(4-(2-tert-butyl-4-(3-methoxy-4-methyl-5-(1-methylethylsulfonamido)phenyl)-1H-imidazol-5-yl)pyrimidin-2-ylamino)propan-2-ylcarbamate] |
| 0.2 | COC(=O)N[C@@H](C)CNc1nccc(-c2[nH]c(C3CC3)nc2-c2cc(F)cc(NS(C)(=O)=O)c2F)n1 [Example 1V, Methyl (2S)-1-(4-(2-cyclopropyl-4-(2,5-difluoro-3-(methylsulfonamido)phenyl)-1H-imidazol-5-yl)pyrimidin-2-ylamino)propan-2-ylcarbamate] |
| 4 | CCCS(=O)(=O)Nc1cc(F)cc(-c2nc(C3CC3)[nH]c2-c2ccncn2)c1Cl [Example 2K, N-(2-Chloro-3-(2-cyclopropyl-5-(pyrimidin-4-yl)-1H-imidazol-4-yl)-5-fluorophenyl)propane-1-sulfonamide] |
| 87 | CS(=O)(=O)Nc1cc(F)cc(-c2nc(C3CC3)[nH]c2-c2ccncn2)c1Cl [Example 2J, N-(2-Chloro-3-(2-cyclopropyl-5-(pyrimidin-4-yl)-1H-imidazol-4-yl)-5-fluorophenyl)methanesulfonamide] |
| 0.96 | COC(=O)N[C@@H](C)CNc1nccc(-c2[nH]c(C3CC3)nc2-c2cc(C)cc(NS(=O)(=O)C(C)C)c2)n1 [Example 4D, (S)-Methyl 1-(4-(2-cyclopropyl-4-(3-methyl-5-(1-methylethylsulfonamido)phenyl)-1H-imidazol-5-yl)pyrimidin-2-ylamino)propan-2-ylcarbamate] |
| 4 | CS(=O)(=O)Nc1cccc(-c2nc(C3CC3)[nH]c2-c2ccnc(NCCC#N)n2)c1F [Example 2E, N-(3-(5-(2-(2-Cyanoethylamino)pyrimidin-4-yl)-2-cyclopropyl-1H-imidazol-4-yl)-2-fluorophenyl)methanesulfonamide] |
| 1.08 | COC(=O)N[C@@H](C)CNc1nccc(-c2[nH]c(C(C)(C)C)nc2-c2cccc(NS(=O)(=O)CCC(F)(F)F)c2F)n1 [Example 4E, (S)-Methyl 1-(4-(2-tert-butyl-4-(2-fluoro-3-(3,3,3-trifluoropropylsulfonamido)phenyl)-1H-imidazol-5-yl)pyrimidin-2-ylamino)propan-2-ylcarbamate] |
| 0.24 | CCS(=O)(=O)Nc1cc(Cl)cc(-c2[nH]c(C3CC3)nc2-c2ccnc(NC[C@H](C)NC(=O)OC)n2)c1F [Example 1Z, (S)-Methyl 1-(4-(5-(5-chloro-3-(ethylsulfonamido)-2-fluorophenyl)-2-cyclopropyl-1H-imidazol-4-yl)pyrimidin-2-ylamino)propan-2-ylcarbamate] |
| 0.08 | CS(=O)(=O)Nc1cc(Cl)cc(-c2nc(C3CC3)[nH]c2-c2ccnc(NCCC#N)n2)c1F [Example 2A, N-(5-Chloro-3-(5-(2-(2-cyanoethylamino)pyrimidin-4-yl)-2-cyclopropyl-1H-imidazol-4-yl)-2-fluorophenyl)methanesulfonamide] |
| 2040 | COC(=O)N[C@@H](C)CNc1nccc(-c2[nH]c(-c3ccc(F)cc3F)nc2-c2cc(F)cc(NS(C)(=O)=O)c2Cl)n1 [Example 1BY] |
| 0.1 | CCCS(=O)(=O)Nc1cc(Cl)cc(-c2nc(C(C)(C)C)[nH]c2-c2ccnc(NC[C@H](C)NC(=O)OC)n2)c1 [Example 1E, (S)-methyl 1-(4-(2-tert-butyl-4-(3-chloro-5-(propylsulfonamido)phenyl)-1H-imidazol-5-yl)pyrimidin-2-ylamino)propan-2-ylcarbamate] |
| 0.48 | COC(=O)N[C@@H](C)CNc1nccc(-c2[nH]c(C3CC3)nc2-c2cc(Cl)cc(NS(C)(=O)=O)c2)n1 [Example 1S, (S)-Methyl 1-(4-(4-(3-chloro-5-(methylsulfonamido)phenyl)-2-cyclopropyl-1H-imidazol-5-yl)pyrimidin-2-ylamino)propan-2-ylcarbamate] |
